The results in this text go back to paper PMC4997885, “In Vitro and In Vivo Assessments of Cardiovascular Effects with Omadacycline” (Antimicrobial Agents and Chemotherapy, 2016).

Series [1] concerns the target T1, hERG (human ether-a-go-go-related gene) channel (Homo sapiens, UniProt Q12809).
T1 construct: gene KCNH2; hERG cDNA stably transfected in HEK293 cells; homotetramer
Briefly: hERG tail current electrophysiology, HEK293 cells. The class given is cell-based. The note with it: room temperature; […] tested; corrected for vehicle rundown; point-to-point fit. On the technique in general: hERG is a cardiac potassium channel; its block is linked to QT prolongation.

The target of series [2] is T2, M5 (Homo sapiens, UniProt P08912).
T2 construct: gene CHRM5; human recombinant receptor
T2 sequence (P08912 1-532): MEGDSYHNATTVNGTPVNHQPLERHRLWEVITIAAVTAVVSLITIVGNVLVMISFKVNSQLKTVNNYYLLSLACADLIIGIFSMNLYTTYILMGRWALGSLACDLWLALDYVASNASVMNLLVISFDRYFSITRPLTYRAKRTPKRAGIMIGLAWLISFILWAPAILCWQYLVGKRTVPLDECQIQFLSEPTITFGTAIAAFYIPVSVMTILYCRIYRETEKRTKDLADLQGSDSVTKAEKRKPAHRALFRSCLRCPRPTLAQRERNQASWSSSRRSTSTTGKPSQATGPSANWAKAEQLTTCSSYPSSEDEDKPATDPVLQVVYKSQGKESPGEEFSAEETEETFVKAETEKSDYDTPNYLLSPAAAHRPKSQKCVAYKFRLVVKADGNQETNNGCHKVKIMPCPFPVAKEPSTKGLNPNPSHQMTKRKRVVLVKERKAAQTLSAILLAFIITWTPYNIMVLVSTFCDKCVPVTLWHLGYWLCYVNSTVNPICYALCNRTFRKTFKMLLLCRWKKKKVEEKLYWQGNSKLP
The series can be described thus: radioligand binding inhibition. The note with it: […] separate tests; read-out: EC50 or IC50. The text has this: radioligand binding inhibition on M5

Series [3] concerns the target T3, M4 (Homo sapiens, UniProt P08173).
T3 construct: gene CHRM4; human recombinant receptor
T3 sequence (P08173 1-479): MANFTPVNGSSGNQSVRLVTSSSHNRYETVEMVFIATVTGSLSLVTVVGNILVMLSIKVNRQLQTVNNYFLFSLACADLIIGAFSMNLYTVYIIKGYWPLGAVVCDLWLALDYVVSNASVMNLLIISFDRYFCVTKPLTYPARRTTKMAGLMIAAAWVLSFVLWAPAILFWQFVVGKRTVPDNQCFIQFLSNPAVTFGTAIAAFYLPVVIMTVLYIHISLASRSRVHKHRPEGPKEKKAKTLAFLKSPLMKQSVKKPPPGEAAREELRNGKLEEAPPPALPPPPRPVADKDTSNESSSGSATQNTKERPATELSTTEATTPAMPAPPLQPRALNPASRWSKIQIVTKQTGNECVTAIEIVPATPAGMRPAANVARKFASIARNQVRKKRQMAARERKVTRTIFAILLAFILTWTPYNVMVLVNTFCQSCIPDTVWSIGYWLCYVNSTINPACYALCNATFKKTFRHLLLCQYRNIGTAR
Briefly: radioligand binding inhibition. The note with it: […] separate tests; read-out: EC50 or IC50. The text has this:
radioligand binding inhibition on M4

Series [4] concerns the target T4, M2 (muscarinic subtype 2 acetylcholine receptor) (Homo sapiens, UniProt P08172).
T4 construct: gene CHRM2; human recombinant receptor
T4 sequence (P08172 1-466): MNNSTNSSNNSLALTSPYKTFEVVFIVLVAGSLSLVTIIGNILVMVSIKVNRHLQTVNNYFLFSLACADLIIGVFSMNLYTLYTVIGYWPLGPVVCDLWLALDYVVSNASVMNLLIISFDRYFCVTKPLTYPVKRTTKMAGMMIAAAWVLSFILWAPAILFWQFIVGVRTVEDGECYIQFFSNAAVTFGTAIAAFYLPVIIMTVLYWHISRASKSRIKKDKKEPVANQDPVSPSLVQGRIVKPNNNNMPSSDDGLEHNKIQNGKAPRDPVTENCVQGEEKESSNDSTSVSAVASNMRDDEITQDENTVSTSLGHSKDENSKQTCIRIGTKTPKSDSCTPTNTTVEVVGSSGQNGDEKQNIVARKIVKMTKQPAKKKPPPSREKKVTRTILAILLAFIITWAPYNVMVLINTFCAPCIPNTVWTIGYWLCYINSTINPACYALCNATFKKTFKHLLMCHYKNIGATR
The series can be described thus: functional M2 agonist assay. The class given is cell-based. The settings on record: agonist mode; […] separate tests; read-out: EC50 or IC50. The text has this: functional M2 agonist assay on M2 (muscarinic subtype 2 acetylcholine receptor)

In series [5] the target is T4, M2 (muscarinic subtype 2 acetylcholine receptor). The series can be described thus: functional M2 antagonist assay. The class given is cell-based. The settings on record: antagonist mode; range of […] separate tests ([…]).
In series [6] the target is T5, M1 (Homo sapiens, UniProt P11229).
T5 construct: gene CHRM1; human recombinant receptor
T5 sequence (P11229 1-460): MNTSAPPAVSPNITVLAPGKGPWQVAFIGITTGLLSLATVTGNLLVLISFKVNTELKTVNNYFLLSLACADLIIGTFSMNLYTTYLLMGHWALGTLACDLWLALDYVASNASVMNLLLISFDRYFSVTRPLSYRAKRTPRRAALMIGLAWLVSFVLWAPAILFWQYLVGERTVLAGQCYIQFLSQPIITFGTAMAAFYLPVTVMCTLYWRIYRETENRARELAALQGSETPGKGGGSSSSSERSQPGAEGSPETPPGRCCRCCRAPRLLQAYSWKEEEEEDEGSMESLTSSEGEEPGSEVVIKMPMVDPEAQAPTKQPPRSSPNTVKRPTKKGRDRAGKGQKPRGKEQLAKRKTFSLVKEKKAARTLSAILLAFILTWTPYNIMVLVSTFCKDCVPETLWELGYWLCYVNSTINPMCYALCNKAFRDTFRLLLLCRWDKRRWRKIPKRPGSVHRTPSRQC
Briefly: radioligand binding inhibition. The note with it: […] test; read-out: EC50 or IC50. The source says: radioligand binding inhibition on M1

The target of series [7] is T6, M3 (muscarinic receptor M3) (Homo sapiens, UniProt P20309).
T6 construct: gene CHRM3; human recombinant receptor
The series can be described thus: radioligand binding inhibition. The note with it: […] test; read-out: EC50 or IC50. The source says:
radioligand binding inhibition on M3 (muscarinic receptor M3)

Series [8] has as its target T4, M2 (muscarinic subtype 2 acetylcholine receptor). Briefly: radioligand binding inhibition screen. The settings on record: read-out: % inhibition or stimulation^a. The text has this: radioligand binding inhibition screen on M2 (muscarinic subtype 2 acetylcholine receptor)
Series [9] has the same target. The series can be described thus: radioligand binding inhibition. The settings on record: range of […] separate tests ([…] and […]).

SMILES strings stand for the structures. Converted amounts (≈) assume the structure as drawn. Where only a bound is given, the exact number is not on record here.

T6 sequence (P20309 whole entry): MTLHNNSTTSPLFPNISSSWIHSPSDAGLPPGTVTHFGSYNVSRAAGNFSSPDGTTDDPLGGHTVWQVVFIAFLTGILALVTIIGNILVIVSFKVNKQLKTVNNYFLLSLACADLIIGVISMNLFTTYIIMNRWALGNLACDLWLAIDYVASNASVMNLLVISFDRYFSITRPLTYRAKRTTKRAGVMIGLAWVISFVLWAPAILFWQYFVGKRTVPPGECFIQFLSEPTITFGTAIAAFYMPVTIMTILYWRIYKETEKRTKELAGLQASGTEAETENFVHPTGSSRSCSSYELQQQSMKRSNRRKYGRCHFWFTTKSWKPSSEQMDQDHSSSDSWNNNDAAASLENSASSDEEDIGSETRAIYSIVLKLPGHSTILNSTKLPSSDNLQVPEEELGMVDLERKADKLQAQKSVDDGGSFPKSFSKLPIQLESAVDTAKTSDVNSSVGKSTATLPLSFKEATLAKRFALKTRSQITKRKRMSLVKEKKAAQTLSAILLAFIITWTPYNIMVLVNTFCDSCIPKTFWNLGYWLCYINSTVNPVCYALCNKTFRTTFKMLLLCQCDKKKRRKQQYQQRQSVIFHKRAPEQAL
T1 sequence (Q12809 whole entry): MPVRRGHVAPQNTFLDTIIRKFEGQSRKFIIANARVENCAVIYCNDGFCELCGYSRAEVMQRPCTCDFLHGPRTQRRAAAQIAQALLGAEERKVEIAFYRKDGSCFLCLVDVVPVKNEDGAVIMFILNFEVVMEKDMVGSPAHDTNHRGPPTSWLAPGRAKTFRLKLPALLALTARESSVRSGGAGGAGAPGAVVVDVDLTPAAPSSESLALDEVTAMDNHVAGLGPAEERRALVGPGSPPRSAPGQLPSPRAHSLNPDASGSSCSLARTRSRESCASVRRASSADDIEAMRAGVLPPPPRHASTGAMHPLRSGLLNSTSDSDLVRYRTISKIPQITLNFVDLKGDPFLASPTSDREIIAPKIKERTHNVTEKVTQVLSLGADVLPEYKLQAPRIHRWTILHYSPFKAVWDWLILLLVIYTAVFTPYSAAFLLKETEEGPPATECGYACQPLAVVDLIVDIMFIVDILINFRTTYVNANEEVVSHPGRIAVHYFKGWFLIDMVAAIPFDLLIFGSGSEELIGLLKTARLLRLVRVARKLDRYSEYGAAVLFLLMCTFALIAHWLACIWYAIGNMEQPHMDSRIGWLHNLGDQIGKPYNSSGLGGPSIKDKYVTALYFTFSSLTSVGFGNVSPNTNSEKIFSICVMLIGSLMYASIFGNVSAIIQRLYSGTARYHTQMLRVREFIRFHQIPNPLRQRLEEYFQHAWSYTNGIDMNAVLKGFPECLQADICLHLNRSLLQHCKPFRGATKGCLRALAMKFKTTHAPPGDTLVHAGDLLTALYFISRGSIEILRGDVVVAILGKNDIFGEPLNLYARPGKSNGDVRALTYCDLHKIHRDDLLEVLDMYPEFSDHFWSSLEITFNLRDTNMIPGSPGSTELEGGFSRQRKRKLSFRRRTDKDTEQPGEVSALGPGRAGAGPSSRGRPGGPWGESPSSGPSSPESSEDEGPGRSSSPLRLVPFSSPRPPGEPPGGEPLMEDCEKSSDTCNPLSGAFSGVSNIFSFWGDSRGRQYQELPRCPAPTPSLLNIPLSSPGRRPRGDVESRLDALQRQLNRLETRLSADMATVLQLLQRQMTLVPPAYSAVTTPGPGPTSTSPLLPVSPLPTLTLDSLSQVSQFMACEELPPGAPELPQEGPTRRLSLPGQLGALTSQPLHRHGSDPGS

Turning to `CN(C)c1cc(CNCC(C)(C)C)c(O)c2c1C[C@H]1C[C@H]3[C@H](N(C)C)C(=O)C(C(N)=O)=C(O)[C@@]3(O)C(=O)C1=C2O` [omadacycline], the IC25 in series [1] was 166 µg/mL (≈ 298 µM). For the same compound, the IC50 in series [2] is above 30 µM; in series [3], above 30 µM; in series [5] it was 21 to 28 µM; in series [6] it was 29 µM; in series [7], above 30 µM; in [9] it was 4.2 to 4.3 µM. Besides, the EC50 in [4] was above 30 µM. Further, in series [8], the inhibition at 10 µM amounted to 82%.

As usually defined, the IC25 is the concentration at which the effect reaches the 25% level. As usually defined, the IC50 is the concentration that gives 50% inhibition. In general, EC50 refers to the concentration giving half of the maximal effect. One may read the inhibition as how much of the control response was suppressed.
